Results published in ChEMBL document CHEMBL3137667, “[Drug-induced liver injury; fourteenth updated edition of the bibliographic database of liver injuries and related drugs]” (Gastroenterol Clin Biol, 2004).

Assays:
[1] = human
[2] = human; remark: listed apart in the source
[3] = human, serum
[4] = human; remark: listed apart in the source
[5] = human; remark: listed apart in the source
[6] = human, serum, 4383 h
[7] = Highest frequency of moderate liver toxicity observed during clinical trials, expressed as a percentage. [column '% BIOL' in source]; conditions: human
[8] = human, serum; remark: listed apart in the source
[9] = human; remark: listed apart in the source
[10] = human; remark: listed apart in the source
[11] = human; remark: listed apart in the source
[12] = human; remark: listed apart in the source
[13] = Highest frequency of acute liver toxicity observed during clinical trials, expressed as a percentage. [column '% AIGUE' in source]; conditions: human
[14] = human; remark: listed apart in the source
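For Hepatotoxicity (association with vascular disease) in this document: count of indexed literature references reporting vascular liver injury in humans, e.g. peliosis hepatitis, hepatic veno-occlusive disease or Budd-Chiari syndrome.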
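For Hepatotoxicity (benign tumour) in this document: value is a count of indexed literature references citing a benign tumour confirmed by histopathology.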
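For Hepatotoxicity (choleostasis) in this document: human cholestatic liver injury, shown by histopathology or by peak ALT or AST elevation over alkaline phosphatase ratio below 2, value counts indexed literature reports.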
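For Hepatotoxicity (chronic liver disease) in this document: chronic liver injury confirmed by histopathology or persistently raised serum aminotransferase activity beyond 6 months, value given as the count of indexed literature references.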
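For Hepatotoxicity (cirrhosis) in this document: value is a count of indexed literature references reporting cirrhosis confirmed by histopathology.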
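For Hepatotoxicity (cytolytic) in this document: human cytolytic liver injury, shown by histopathology or by a ratio above 5 of peak ALT or AST elevation to alkaline phosphatase elevation, value counts indexed references.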
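For Hepatotoxicity (granulomatous hepatitis) in this document: value is a count of indexed literature references reporting granulomatous liver disease confirmed by histopathology.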
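For Hepatotoxicity (malignant tumour) in this document: malignant tumour confirmed by histopathology, value gives the count of indexed literature references reporting it.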
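For Hepatotoxicity (severe hepatitis) in this document: human clinical data: severe hepatitis, meaning potentially life-threatening liver failure or clinically observed cases, the value counts how many indexed literature references report it.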
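For Hepatotoxicity (steatosis) in this document: steatosis confirmed by histopathology, value is the count of indexed references.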

SMILES | Hepatotoxicity (cirrhosis) [1] | Hepatotoxicity (association with vascular disease) [2] | Hepatotoxicity (acute) [3] | Hepatotoxicity (severe hepatitis) [4] | Hepatotoxicity (benign tumour) [5] | Hepatotoxicity (chronic liver disease) [6] | Hepatotoxicity (moderate) [7] [%] | Hepatotoxicity (moderate) [8] | Hepatotoxicity (granulomatous hepatitis) [9] | Hepatotoxicity (cytolytic) [10] | Hepatotoxicity (steatosis) [11] | Hepatotoxicity (choleostasis) [12] | Hepatotoxicity (acute) [13] [%] | Hepatotoxicity (malignant tumour) [14] | Hepatotoxicity (severe hepatitis) ([4]; Liver) | Hepatotoxicity (moderate) ([7]; Liver) [%] | Hepatotoxicity (acute) ([13]; Liver) [%]
O=[N+]([O-])c1ccc(O)c([N+](=O)[O-])c1 [2,4-DINITROPHENOL] | 0 | 0 | 3 | 2 | 0 | 0 | 0 | 0 | 0 | 0 | 0 | 0 | 0 | 0 | – | – | –
COCc1c(C(=O)OC(C)C)ncc2[nH]c3ccc(OCc4ccccc4)cc3c12 [ABECARNIL] | 0 | 0 | 0 | 0 | 0 | 0 | 8 | 1 | 0 | 0 | 0 | 0 | 0 | 0 | – | – | –
N[C@H](C(=O)O)[C@@H]1CC(Cl)=NO1 [ACIVICIN] | 0 | 0 | 0 | 0 | 0 | 0 | 62 | 3 | 0 | 0 | 0 | 0 | 0 | 0 | – | – | –
Nc1nc2c(ncn2COCCO)c(=O)[nH]1 [ACYCLOVIR] | 0 | 0 | 1 | – | 0 | 0 | – | 18 | 0 | 1 | 0 | 0 | – | 0 | 0 | 50 | 1.9
Nc1ncnc2c1ncn2CCOCP(=O)(O)O [ADEFOVIR] | 0 | 0 | 1 | 0 | 0 | 0 | 33.3 | 2 | 0 | 1 | 0 | 0 | 7.4 | 0 | – | – | –
CC(N)C(=O)OC(C)(C)Cc1ccc(Cl)cc1 (centres undefined) [ALAPROCLATE] | 0 | 0 | 0 | 0 | 0 | 0 | 0 | 1 | 0 | 0 | 0 | 0 | 0 | 0 | – | – | –
O=C(O)CN1C(=O)c2cccc3cccc(c23)C1=O [ALRESTATIN] | 0 | 0 | 0 | 0 | 0 | 0 | 11.1 | 2 | 0 | 0 | 0 | 0 | 0 | 0 | – | – | –
CC(C)(C)C(=O)OCOC(=O)[C@@H]1N2C(=O)[C@@H](/N=C/N3CCCCCC3)[C@H]2SC1(C)C [AMDINOCILLIN PIVOXIL] | 0 | 0 | 0 | 0 | 0 | 0 | 17.2 | 1 | 0 | 0 | 0 | 0 | 0 | 0 | – | – | –
CNn1cc(C(=O)O)c(=O)c2cc(F)c(N3CCN(C)CC3)cc21 [AMIFLOXACIN] | 0 | 0 | 1 | – | 0 | 0 | – | 1 | 0 | 1 | 0 | 0 | – | 0 | 0 | 5 | 1.7
NCC[C@H](O)C(=O)N[C@@H]1C[C@H](N)[C@@H](O[C@H]2O[C@H](CN)[C@@H](O)[C@H](O)[C@H]2O)[C@H](O)[C@H]1O[C@H]1O[C@H](CO)[C@@H](O)[C@H](N)[C@H]1O [AMIKACIN] | 0 | 0 | 0 | 0 | 0 | 0 | 15.3 | 6 | 0 | 0 | 0 | 0 | 0 | 0 | – | – | –
CN(C)CCN1C(=O)c2cccc3cc(N)cc(c23)C1=O [AMONAFIDE] | 0 | 0 | 0 | 0 | 0 | 0 | 44 | 5 | 0 | 0 | 0 | 0 | 0 | 0 | – | – | –
CC(C)(C#N)c1cc(Cn2cncn2)cc(C(C)(C)C#N)c1 [ANASTROZOLE] | 0 | 0 | 0 | 0 | 0 | 0 | 0 | 1 | 0 | 0 | 0 | 0 | 0 | 0 | – | – | –
O=c1n(CC2CO2)c(=O)n(CC2CO2)n1CC1CO1 (centres undefined) [ANAXIRONE] | 0 | 0 | 0 | 0 | 0 | 0 | 0 | 1 | 0 | 0 | 0 | 0 | 0 | 0 | – | – | –
Cc1cc(=O)n(-c2ccccc2)n1C [ANTIPYRINE] | 0 | 0 | 1 | 0 | 0 | 0 | 0 | 0 | 0 | 0 | 0 | 1 | 0 | 0 | – | – | –
CN1CCc2cccc3c2[C@H]1Cc1ccc(O)c(O)c1-3 [APOMORPHINE] | 0 | 0 | 0 | 0 | 0 | 0 | 0 | 1 | 0 | 0 | 0 | 0 | 0 | 0 | – | – | –
NCC[C@H](O)C(=O)N[C@@H]1C[C@H](N)[C@@H](O[C@H]2O[C@H](CN)CC[C@H]2N)[C@H](O)[C@H]1O[C@H]1O[C@H](CO)[C@@H](O)[C@H](N)[C@H]1O [ARBEKACIN] | 0 | 0 | 0 | 0 | 0 | 0 | 27.3 | 30 | 0 | 0 | 0 | 0 | 0 | 0 | – | – | –
